Consider one substance from EP0157753B1, “New somatostatin compounds, process for their synthesis, preparation for veterinary use containing said compound and process for the treatment of animals” (TECHLAND, Société Anonyme, priority 1984, dated 1987).

The assay in a line: Treatment of young bulls with GPP: live weight gain and food intake over 7 months. Format: in vivo. The following applies: batch 5 (SRIF, MTP treated) versus batch 3 (SRIF, MDP treated); low, without any statistical significance. As for the experimental part:
They were injected four times with 100 µg of GPP or a mixture of equivalent amounts of muramyl di-or triptide and SRIF. Samples were solubilized in physiological medium supplemented with 40 % WN polyethyleneglycol 6000. Intramuscular injections in the neck of animals were performed with 3 ml of the solution at days 0, 10, 30 and 60 of the 7 months period. During the seventh months treatment period the animals received a concentrate ad libitum. Each month, the animals were weighed and blood samples were taken for further analyses. The results concerning the parameters studied in this zootechnical experiment were summarized in the following.
Variance analysis of the body live weight gain has been performed on 27 animals alive on September 27, 1984 (16 controls and 11 treated animals). At that time, the difference of life weight gain between the 16 control animals and the 11 treated animals was 31.3 kg per animal, i. e. 11 % over controls.

In the case of “SRIF, MTP: Coupling of a muramyl tripeptide analog (N-acetyl muramyl-L-Ala-D-isoglutamyl-L-lysine OMe) with somatostatine (SRIF)”, the “deviation between the life gain of treated animals of batch 5 and batch 3” value amounted to 5.7 kg.
